Laboratory results: ChEMBL document CHEMBL5241062, “Recent advances of dual FGFR inhibitors as a novel therapy for cancer” (Eur J Med Chem, 2021)
Values belong to the molecule of their own block, whether it stands above or below them.

Columns and labels:
NCI-H1581 = test: Antitumor activity against human NCI-H1581 cells assessed as tumor growth inhibition at 50 mg/kg, po administered for 14 days relative to control; type: functional; settings: NCI-H1581, 336 h, time 14 day, read-out: TGI
[1] = target: T1, Receptor-type tyrosine-protein kinase FLT3 (Homo sapiens, UniProt P36888); test: Inhibition of His tagged recombinant human FLT3 (564 to 958 residues) expressed in baculovirus expression system incubated for […] in the presence of ATP by Z'-LYTE kinase assay
T1 sequence (P36888 whole entry): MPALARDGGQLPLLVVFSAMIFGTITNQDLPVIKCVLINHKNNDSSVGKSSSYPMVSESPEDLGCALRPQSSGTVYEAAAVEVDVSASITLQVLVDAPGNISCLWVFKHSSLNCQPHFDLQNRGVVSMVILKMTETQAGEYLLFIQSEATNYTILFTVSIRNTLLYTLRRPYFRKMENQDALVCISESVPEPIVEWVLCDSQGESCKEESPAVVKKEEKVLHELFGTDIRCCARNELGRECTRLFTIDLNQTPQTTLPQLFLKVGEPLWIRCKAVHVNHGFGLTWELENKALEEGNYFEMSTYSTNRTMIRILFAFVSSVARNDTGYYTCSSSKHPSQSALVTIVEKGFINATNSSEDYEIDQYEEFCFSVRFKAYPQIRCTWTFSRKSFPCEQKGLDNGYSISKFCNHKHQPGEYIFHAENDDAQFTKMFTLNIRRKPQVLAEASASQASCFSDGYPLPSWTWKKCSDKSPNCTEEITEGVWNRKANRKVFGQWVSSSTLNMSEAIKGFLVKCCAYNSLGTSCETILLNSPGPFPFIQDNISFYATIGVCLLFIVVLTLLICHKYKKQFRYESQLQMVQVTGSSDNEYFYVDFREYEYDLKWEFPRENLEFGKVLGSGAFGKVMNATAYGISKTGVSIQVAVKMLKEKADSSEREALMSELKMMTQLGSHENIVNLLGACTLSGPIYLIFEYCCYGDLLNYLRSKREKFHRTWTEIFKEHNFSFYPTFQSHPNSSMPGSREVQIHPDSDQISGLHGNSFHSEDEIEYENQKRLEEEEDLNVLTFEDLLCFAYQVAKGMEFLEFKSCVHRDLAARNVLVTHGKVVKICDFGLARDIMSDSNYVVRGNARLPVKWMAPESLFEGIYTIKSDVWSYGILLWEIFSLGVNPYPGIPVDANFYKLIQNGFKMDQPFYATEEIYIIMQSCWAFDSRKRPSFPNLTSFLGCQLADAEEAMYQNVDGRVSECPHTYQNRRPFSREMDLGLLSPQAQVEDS

[2] = target: Platelet-derived growth factor receptor alpha (Homo sapiens, UniProt P16234); test: Inhibition of PDGFRalpha (unknown origin) incubated for […] in the presence of ATP by Z'-LYTE kinase assay
[3] = target: T2, Epidermal growth factor receptor (Homo sapiens, UniProt P00533); test: Inhibition of EGFR (unknown origin) using biotin as substrate incubated for 1 hrs in the presence of ATP by HTRF assay
[4] = target: T3, Fibroblast growth factor receptor 4 (Homo sapiens, UniProt P22455); test: Inhibition of FGFR4 (unknown origin) using biotin as substrate incubated for 1 hrs in the presence of ATP by HTRF assay
T3 sequence (P22455 whole entry, the tested form may be a part): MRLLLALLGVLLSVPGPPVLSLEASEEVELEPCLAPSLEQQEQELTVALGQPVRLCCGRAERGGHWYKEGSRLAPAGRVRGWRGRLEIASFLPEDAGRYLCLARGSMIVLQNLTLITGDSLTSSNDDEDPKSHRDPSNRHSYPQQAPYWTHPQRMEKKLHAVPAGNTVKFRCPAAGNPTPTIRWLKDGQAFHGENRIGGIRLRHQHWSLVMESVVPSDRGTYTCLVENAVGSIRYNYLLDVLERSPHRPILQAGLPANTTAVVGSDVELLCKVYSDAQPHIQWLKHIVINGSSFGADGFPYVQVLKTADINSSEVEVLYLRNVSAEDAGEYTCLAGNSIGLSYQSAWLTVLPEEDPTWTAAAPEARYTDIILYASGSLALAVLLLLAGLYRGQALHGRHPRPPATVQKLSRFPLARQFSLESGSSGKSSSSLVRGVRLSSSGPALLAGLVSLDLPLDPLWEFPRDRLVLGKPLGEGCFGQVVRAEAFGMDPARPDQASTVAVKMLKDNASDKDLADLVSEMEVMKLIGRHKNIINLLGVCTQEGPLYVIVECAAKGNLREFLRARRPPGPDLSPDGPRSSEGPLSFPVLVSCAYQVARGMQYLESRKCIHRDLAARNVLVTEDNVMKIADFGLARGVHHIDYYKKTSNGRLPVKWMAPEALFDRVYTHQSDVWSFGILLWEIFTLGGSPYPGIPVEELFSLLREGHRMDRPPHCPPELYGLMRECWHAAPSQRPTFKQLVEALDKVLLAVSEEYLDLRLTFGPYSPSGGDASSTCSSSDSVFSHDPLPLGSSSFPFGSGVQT

[5] = target: T4, Fibroblast growth factor receptor 1 (Homo sapiens, UniProt P11362); test: Inhibition of N-terminal 6-His tagged recombinant FGFR1 Kinase domain (unknown origin) expressed in baculovirus expression system incubated for 30 mins in the presence of [33p]-ATP by scintillation counting analysis
T4 sequence (P11362 whole entry, the tested form may be a part): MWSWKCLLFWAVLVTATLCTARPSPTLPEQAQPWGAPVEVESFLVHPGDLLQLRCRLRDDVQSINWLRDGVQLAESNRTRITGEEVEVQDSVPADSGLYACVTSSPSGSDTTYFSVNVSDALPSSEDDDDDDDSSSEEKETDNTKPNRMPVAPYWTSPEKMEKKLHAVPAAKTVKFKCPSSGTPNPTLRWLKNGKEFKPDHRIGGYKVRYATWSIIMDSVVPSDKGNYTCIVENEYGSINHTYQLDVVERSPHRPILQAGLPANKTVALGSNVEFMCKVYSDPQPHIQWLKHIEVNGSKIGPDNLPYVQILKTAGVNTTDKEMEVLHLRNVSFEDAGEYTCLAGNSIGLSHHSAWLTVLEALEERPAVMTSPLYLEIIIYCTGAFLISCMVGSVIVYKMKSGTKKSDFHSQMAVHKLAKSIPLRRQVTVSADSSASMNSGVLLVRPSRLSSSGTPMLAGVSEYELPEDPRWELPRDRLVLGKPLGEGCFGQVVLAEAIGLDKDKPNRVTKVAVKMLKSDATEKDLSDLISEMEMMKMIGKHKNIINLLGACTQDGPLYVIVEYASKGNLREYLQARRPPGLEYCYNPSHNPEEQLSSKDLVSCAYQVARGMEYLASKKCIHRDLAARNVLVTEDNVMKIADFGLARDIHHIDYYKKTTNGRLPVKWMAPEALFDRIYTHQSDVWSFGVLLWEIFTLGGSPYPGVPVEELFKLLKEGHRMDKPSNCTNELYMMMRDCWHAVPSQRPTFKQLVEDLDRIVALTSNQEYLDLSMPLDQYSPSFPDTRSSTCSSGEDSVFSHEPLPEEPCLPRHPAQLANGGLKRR

[6] = target: T5, Platelet-derived growth factor receptor beta (Homo sapiens, UniProt P09619); test: Inhibition of N-terminal 6-His tagged recombinant PDGFRbeta Kinase domain (unknown origin) expressed in baculovirus expression system incubated for 30 mins in the presence of [33p]-ATP by scintillation counting analysis
[7] = target: T6, Vascular endothelial growth factor receptor 2 (Homo sapiens, UniProt P35968); test: Inhibition of N-terminal 6-His tagged recombinant VEGFR2 Kinase domain (unknown origin) expressed in baculovirus expression system incubated for 30 mins in the presence of [33p]-ATP by scintillation counting analysis
T6 sequence (P35968 whole entry, the tested form may be a part): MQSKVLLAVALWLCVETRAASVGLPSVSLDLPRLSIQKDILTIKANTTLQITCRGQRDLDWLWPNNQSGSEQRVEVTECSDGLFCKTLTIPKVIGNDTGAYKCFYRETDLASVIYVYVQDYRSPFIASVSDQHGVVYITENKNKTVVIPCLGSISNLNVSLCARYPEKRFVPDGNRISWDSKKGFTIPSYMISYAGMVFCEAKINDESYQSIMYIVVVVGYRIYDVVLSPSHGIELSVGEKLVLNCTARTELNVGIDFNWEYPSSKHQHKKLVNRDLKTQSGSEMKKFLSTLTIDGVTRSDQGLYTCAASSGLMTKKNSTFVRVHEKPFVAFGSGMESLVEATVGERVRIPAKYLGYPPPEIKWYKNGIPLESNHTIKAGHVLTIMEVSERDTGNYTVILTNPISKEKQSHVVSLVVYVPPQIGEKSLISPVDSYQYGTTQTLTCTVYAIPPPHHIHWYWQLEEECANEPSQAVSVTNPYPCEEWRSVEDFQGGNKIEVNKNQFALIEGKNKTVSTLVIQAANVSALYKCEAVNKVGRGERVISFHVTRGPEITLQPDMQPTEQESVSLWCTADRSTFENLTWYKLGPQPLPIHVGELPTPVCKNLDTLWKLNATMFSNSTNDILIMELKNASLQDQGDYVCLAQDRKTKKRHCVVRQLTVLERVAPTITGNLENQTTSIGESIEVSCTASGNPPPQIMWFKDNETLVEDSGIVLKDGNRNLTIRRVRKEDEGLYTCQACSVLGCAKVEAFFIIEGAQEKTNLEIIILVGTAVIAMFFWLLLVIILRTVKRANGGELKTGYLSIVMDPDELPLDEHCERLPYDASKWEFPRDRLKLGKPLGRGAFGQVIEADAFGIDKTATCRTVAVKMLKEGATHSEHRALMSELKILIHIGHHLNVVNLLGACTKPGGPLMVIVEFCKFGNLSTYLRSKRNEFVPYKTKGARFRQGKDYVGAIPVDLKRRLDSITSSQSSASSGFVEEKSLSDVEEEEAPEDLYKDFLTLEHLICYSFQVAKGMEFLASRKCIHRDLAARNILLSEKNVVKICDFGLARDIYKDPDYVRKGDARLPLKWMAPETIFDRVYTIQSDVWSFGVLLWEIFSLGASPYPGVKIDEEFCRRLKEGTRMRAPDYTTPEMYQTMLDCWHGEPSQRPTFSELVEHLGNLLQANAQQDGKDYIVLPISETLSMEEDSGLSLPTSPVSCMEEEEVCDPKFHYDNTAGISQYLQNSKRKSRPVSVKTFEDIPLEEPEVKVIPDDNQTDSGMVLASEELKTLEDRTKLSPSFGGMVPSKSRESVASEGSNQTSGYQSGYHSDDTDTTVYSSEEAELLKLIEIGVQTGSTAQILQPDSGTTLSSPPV

[8] = target: T7, Vascular endothelial growth factor receptor 1 (Homo sapiens, UniProt P17948); test: Inhibition of recombinant VEGFR1 (unknown origin) in the presence of [p33]-ATP
[9] = target: T4, Fibroblast growth factor receptor 1; test: Inhibition of recombinant FGFR1 (unknown origin) in the presence of [p33]-ATP
[10] = target: T8, Fibroblast growth factor receptor substrate 2 (Homo sapiens, UniProt Q8WU20); test: Inhibition of FRS2 phosphorylation at Tyr196 residue in human NCI-H1581 cells incubated for 20 mins by electrochemiluminescence method; type: cell-based
T8 sequence (Q8WU20 whole entry): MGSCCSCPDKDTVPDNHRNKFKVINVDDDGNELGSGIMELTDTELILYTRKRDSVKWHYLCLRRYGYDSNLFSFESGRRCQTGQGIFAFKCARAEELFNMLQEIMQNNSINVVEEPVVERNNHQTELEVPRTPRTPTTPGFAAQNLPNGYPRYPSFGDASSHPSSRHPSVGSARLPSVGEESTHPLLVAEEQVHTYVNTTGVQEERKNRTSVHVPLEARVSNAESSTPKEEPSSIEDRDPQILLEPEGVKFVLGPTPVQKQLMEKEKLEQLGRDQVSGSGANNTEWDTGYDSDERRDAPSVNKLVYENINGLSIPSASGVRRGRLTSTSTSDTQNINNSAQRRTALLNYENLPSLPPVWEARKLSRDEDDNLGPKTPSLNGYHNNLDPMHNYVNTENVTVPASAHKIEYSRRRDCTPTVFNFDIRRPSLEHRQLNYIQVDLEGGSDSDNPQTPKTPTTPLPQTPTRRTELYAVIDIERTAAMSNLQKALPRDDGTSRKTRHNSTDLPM

[11] = target: T9, Fibroblast growth factor receptor 2 (Homo sapiens, UniProt P21802); test: Inhibition of recombinant FGFR2 (unknown origin) in the presence of [p33]-ATP
T9 sequence (P21802 whole entry): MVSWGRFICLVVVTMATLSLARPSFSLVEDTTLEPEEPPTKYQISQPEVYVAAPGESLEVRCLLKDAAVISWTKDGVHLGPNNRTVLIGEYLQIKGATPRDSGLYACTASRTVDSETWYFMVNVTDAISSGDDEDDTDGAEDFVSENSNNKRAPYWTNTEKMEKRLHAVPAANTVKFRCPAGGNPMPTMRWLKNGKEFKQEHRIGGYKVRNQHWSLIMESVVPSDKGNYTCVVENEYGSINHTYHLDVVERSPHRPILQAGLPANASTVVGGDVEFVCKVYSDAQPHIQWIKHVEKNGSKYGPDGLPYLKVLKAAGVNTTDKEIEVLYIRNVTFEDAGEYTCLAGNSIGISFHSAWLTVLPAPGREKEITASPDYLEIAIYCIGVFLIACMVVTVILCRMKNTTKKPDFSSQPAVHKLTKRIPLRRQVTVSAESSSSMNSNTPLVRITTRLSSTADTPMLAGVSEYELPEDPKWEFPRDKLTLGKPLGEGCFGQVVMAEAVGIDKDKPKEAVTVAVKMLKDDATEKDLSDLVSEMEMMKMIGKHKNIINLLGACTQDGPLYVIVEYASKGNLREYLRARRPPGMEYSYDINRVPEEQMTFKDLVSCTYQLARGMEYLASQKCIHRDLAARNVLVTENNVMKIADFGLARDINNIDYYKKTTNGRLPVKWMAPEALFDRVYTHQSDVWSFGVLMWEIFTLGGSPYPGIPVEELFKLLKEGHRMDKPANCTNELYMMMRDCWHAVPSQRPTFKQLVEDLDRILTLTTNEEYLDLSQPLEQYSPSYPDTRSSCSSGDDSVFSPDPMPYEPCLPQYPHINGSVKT

[12] = target: T3, Fibroblast growth factor receptor 4; test: Inhibition of recombinant FGFR4 (unknown origin) in the presence of [p33]-ATP
RT-4 [13] = test: Antitumor activity against human RT-4 cells xenografted in mouse assessed as tumor growth inhibition at 20 mg/kg/day, po administered for 21 days relative to control; type: functional; settings: RT-4, 504 h, time 21 day, read-out: TGI
[14] = target: Vascular endothelial growth factor receptor 3 (Homo sapiens, UniProt P35916); test: Inhibition of recombinant VEGFR3 (unknown origin) in the presence of [p33]-ATP
RT-4 [15] = test: Antitumor activity against human RT-4 cells xenografted in mouse assessed as tumor growth inhibition at 40 mg/kg/day, po administered for 21 days relative to control; type: functional; settings: RT-4, 504 h, time 21 day, read-out: TGI
[16] = target: T6, Vascular endothelial growth factor receptor 2; test: Inhibition of recombinant VEGFR2 (unknown origin) in the presence of [p33]-ATP
[17] = target: T8, Fibroblast growth factor receptor substrate 2; test: Inhibition of FRS2 phosphorylation at Tyr196 residue in human RT-4 cells incubated for 20 mins by electrochemiluminescence method; type: cell-based
[18] = target: T10, Fibroblast growth factor receptor 3 (Homo sapiens, UniProt P22607); test: Inhibition of recombinant FGFR3 (unknown origin) in the presence of [p33]-ATP
T10 sequence (P22607 whole entry): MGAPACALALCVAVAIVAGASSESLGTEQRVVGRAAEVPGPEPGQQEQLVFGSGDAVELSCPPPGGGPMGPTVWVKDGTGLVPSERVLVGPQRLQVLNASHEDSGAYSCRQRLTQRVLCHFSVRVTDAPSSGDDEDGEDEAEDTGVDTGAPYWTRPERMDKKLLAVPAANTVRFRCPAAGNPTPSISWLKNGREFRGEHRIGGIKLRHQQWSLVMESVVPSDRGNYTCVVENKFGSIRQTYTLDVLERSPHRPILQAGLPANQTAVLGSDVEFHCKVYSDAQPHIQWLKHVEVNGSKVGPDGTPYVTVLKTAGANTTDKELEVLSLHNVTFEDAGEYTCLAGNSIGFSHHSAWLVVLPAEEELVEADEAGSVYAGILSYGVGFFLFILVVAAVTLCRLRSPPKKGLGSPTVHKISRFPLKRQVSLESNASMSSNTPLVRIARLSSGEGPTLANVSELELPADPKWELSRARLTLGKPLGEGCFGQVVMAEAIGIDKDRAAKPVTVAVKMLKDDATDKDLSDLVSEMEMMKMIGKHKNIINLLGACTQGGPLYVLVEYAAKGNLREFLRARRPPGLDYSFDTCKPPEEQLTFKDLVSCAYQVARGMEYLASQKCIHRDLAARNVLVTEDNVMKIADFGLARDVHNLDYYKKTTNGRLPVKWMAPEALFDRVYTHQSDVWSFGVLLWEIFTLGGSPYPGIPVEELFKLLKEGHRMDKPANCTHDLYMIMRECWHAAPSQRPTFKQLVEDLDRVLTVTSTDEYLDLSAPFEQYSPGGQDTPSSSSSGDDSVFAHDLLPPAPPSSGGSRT

[19] = target: T8, Fibroblast growth factor receptor substrate 2; test: Inhibition of FRS2 phosphorylation at Tyr196 residue in human SNU-16 cells incubated for 20 mins by electrochemiluminescence method; type: cell-based
[20] = target: T9, Fibroblast growth factor receptor 2; test: Inhibition of recombinant FGFR2 (unknown origin) incubated for 60 mins by ELISA analysis
[21] = target: T10, Fibroblast growth factor receptor 3; test: Inhibition of recombinant FGFR3 (unknown origin) incubated for 60 mins by ELISA analysis
[22] = target: T4, Fibroblast growth factor receptor 1; test: Inhibition of recombinant FGFR1 (unknown origin) incubated for 60 mins by ELISA analysis
[23] = target: T5, Platelet-derived growth factor receptor beta; test: Inhibition of recombinant PDGFRbeta (unknown origin) incubated for 60 mins by ELISA analysis
[24] = target: T7, Vascular endothelial growth factor receptor 1; test: Inhibition of recombinant VEGFR1 (unknown origin) incubated for 60 mins by ELISA analysis
[25] = target: T6, Vascular endothelial growth factor receptor 2; test: Inhibition of recombinant VEGFR2 (unknown origin) incubated for 60 mins by ELISA analysis
[26] = target: T3, Fibroblast growth factor receptor 4; test: Inhibition of FGFR4 (unknown origin) by Z'-LYTE Kinase assay
[27] = target: T9, Fibroblast growth factor receptor 2; test: Inhibition of FGFR2 (unknown origin) by Z'-LYTE Kinase assay
[28] = target: T10, Fibroblast growth factor receptor 3; test: Inhibition of FGFR3 (unknown origin) by Z'-LYTE Kinase assay
[29] = target: T2, Epidermal growth factor receptor; test: Inhibition of EGFR (unknown origin) by Z'-LYTE Kinase assay
[30] = target: T4, Fibroblast growth factor receptor 1; test: Inhibition of FGFR1 (unknown origin) by Z'-LYTE Kinase assay

SMILES: COc1cc(OC)c(Cl)c(-c2ccc3c(NC(=O)c4ccc(N5CCNC(C)(C)C5)cc4)n[nH]c3n2)c1Cl [SEGIGRATINIB]
inhibition in vivo at 50 mg/kg (NCI-H1581): 96.4%

SMILES: O=C(O)CCc1c(/C=C2\C(=O)Nc3ccc(F)cc32)[nH]c2c1C(=O)CCC2
IC50 [5]: 260 nM | IC50 [6]: 42 nM | IC50 [7]: 25 nM

SMILES: Cn1cc(-c2ccc3c(c2)ncn3-c2cc(NS(=O)(=O)C3CC3)cc(-c3ccc(F)cc3F)c2)cn1
IC50 [8]: 26 nM | IC50 [9]: 11 nM | IC50 [10]: 93 nM | IC50 [11]: 16 nM | IC50 [12]: 35 nM | inhibition in vivo at 20 mg/kg/day (RT-4 [13]): 37% | IC50 [14]: 5 nM | inhibition in vivo at 40 mg/kg/day (RT-4 [15]): 92% | IC50 [16]: 9 nM | IC50 [17]: 89 nM | IC50 [18]: 6 nM | IC50 [19]: 59 nM

Other lines, results leading:

IC50 [1]: 1.33 nM | IC50 [2]: 2.08 nM
SMILES: Cc1ccc(C(=O)Nc2ccc(CN3CCN(C)CC3)c(C(F)(F)F)c2)cc1C#Cc1cnc2[nH]ncc2c1 [OLVEREMBATINIB]

IC50 [3]: 86.2 nM | IC50 [4]: 83.9 nM
SMILES: COc1cc2ncnc(Oc3ccc(NC(=O)Nc4cccc(C(F)(F)F)c4)c4ccccc34)c2cc1OC

IC50 [20]: 1.9 nM | IC50 [21]: 6.9 nM | IC50 [22]: 1.8 nM | IC50 [23]: 7.8 nM | IC50 [24]: 5.6 nM | IC50 [25]: 1.2 nM
SMILES: CNC(=O)c1cccc2cc(Oc3ccnc(NC(=O)c4ccc(N5CCN(CCO)CC5)cc4)c3)ccc12

IC50 [26]: 35 nM | IC50 [27]: 21 nM | IC50 [28]: 31 nM | IC50 [29]: 43 nM | IC50 [30]: 3 nM
SMILES: C=CC(=O)Nc1ccc(CN(C(=O)Nc2c(Cl)c(OC)cc(OC)c2Cl)c2cc(Nc3ccc(N4CCN(C)CC4)cc3)ncn2)cc1
